For data set [1], the target named is Human immunodeficiency virus type 1 integrase (Human immunodeficiency virus 1) (UniProt Q7ZJM1). As to the kind of experiment: Binding affinity to HIV-1 Integrase by FRET assay.
Data set [2] has the same target. Put plainly: Inhibition of HIV-1 Integrase at 1:50 protein/compound molar ratio. Conditions: concentration not given here.
Data set [3] is described as follows: Chemical stability of the compound in presence of trypsin and chymotrypsin mixture at 1 mM after 30 mins by MALDI-TOF MS. Type of data set: physicochemical. To be noted: isolated protein, 0.5 h, 1000 µM.
Data set [4] concerns Human immunodeficiency virus 1. As to the kind of experiment: Antiviral activity against HIV1 infected in human H9 cells assessed as extracellular release of viral protein p24 at 12.5 uM added to the medium every 2 days. Type of data set: functional.
In data set [5] the test system is Human immunodeficiency virus 1. As to the kind of experiment: Antiviral activity against HIV1 infected in human MAGI cells assessed as Tat-mediated reporter gene expression. Type of data set: functional, organism-based. On the technique in general: Reporter assays use an easily measured gene product as a stand-in for the process of interest.
Data set [6] has as its system Human immunodeficiency virus 1. Put plainly: Antiviral activity against HIV1 infected in human H9 cells assessed as extracellular release of viral protein p24 at 12.5 uM added to the medium every 2 days measured after 8 days. Type of data set: functional. Conditions: Human immunodeficiency virus 1, H9.
The nature of data set [7]: Chemical stability of the compound in presence of trypsin and chymotrypsin mixture at 1 mM after 150 mins by MALDI-TOF MS. Type of data set: physicochemical. To be noted: isolated protein, 2.5 h, 1000 µM.
The target of data set [8] is Human immunodeficiency virus type 1 integrase (Human immunodeficiency virus 1) (UniProt Q7ZJM1). As to the kind of experiment: Inhibition of HIV-1 Integrase. To be noted: concentration not given here.
For data set [9], the system named is Human immunodeficiency virus 1. As to the kind of experiment: Antiviral activity against HIV1 infected in human H9 cells assessed as extracellular release of viral protein p24 at 12.5 uM after 8 days. Type of data set: functional, organism-based.

The source made the active and inactive calls. No cut-off for these calls is given here. Numbered stars: 1 amine (or outer) side, 2 acyl side, 3 side chain; on linkers, the order of the positions; unused ones are H or OH. Bridge positions count the residues as written; N and C are the ends. Square brackets hold non-standard residues; d marks the D form. Peptide text beside a SMILES is read from it. X2 = O=C(c1ccccc1-c1c2ccc(=O)cc-2oc2cc(O)ccc12)N(CCC(=O)[*:1])C(=O)[*:2]; X1 = O=C(c1ccccc1-c1c2ccc(=O)cc-2oc2cc(O)ccc12)N(CC(=O)[*:1])C(=O)[*:2]; N(6-aminohexyl)Gly = O=C(CN(CCCCCCN[*:3])[*:1])[*:2]; NGly(3-aminopropyl) = O=C(CN(CCCN[*:3])[*:1])[*:2]; N(2-Aminoethyl)Gly = O=C(CN(CCN[*:3])[*:1])[*:2]; Nlys = NCCCCNCC(=O)O

In general, inhibition refers to the relative decrease from the control value, in per cent.

Human immunodeficiency virus type 1 integrase (Human immunodeficiency virus 1), sequence (Q7ZJM1 as listed by the source): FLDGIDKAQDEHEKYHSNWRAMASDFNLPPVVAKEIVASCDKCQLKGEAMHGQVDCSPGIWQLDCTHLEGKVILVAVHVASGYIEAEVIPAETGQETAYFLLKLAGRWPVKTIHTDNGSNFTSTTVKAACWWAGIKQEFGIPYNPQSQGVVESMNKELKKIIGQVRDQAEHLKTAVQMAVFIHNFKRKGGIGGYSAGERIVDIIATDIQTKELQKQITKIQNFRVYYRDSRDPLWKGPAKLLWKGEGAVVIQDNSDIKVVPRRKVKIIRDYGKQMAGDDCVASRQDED

Compound `CC[C@H](C)[C@@H]1NC(=O)[C@H](CCCCN)NC(=O)[C@H](CC(C)C)NC(=O)[C@H](CO)NC(=O)[C@H](CC(N)=O)NC(=O)[C@H](Cc2c[nH]c3ccccc23)NC(=O)CCN(C(=O)c2ccccc2-c2c3ccc(=O)cc-3oc3cc(O)ccc23)C(=O)NCCCN(CC(N)=O)C(=O)[C@H](C(C)C)NC(=O)[C@H](CC(=O)O)NC(=O)[C@H](CC(C)C)NC(=O)[C@H](CC(N)=O)NC(=O)[C@H](CC(=O)O)NC1=O` (WNSLKIDNLDV[NGly(3-aminopropyl)]-NH2; linker N-12 via X2) showed an Activity in [1] of 4 µM. In addition, the inhibition in data set [2] is 19%.

`CC[C@H](C)[C@@H]1NC(=O)[C@H](CCCCN)NC(=O)[C@H](CC(C)C)NC(=O)[C@H](CO)NC(=O)[C@H](CC(N)=O)NC(=O)[C@H](Cc2c[nH]c3ccccc23)NC(=O)CCN(C(=O)c2ccccc2-c2c3ccc(=O)cc-3oc3cc(O)ccc23)C(=O)NCCCCN(CC(N)=O)C(=O)[C@H](C(C)C)NC(=O)[C@H](CC(=O)O)NC(=O)[C@H](CC(C)C)NC(=O)[C@H](CC(N)=O)NC(=O)[C@H](CC(=O)O)NC1=O` (WNSLKIDNLDV[Nlys]-NH2; linker N-12 via X2) registered an Activity in data set [1] of 3.1 µM. For the same compound, the inhibition in data set [2] was determined as 65%.

Consider `CC[C@H](C)[C@@H]1NC(=O)[C@H](CCCCN)NC(=O)[C@H](CC(C)C)NC(=O)[C@H](CO)NC(=O)[C@H](CC(N)=O)NC(=O)[C@H](Cc2c[nH]c3ccccc23)NC(=O)CN(C(=O)c2ccccc2-c2c3ccc(=O)cc-3oc3cc(O)ccc23)C(=O)NCCCCN(CC(N)=O)C(=O)[C@H](C(C)C)NC(=O)[C@H](CC(=O)O)NC(=O)[C@H](CC(C)C)NC(=O)[C@H](CC(N)=O)NC(=O)[C@H](CC(=O)O)NC1=O` (WNSLKIDNLDV[Nlys]-NH2; linker N-12 via X1), for which the Stability result in data set [3] is on record as “Stable”; in [7] it was “Unstable”. Also, the inhibition at 12.5 µM in [4] (Human immunodeficiency virus 1, H9, 48 h) was 80%; in [6], above 90%. Also, the Activity is 5 µM in data set [1] and “Dose-dependent effect” in data set [5]. Besides, in data set [2], the inhibition came out at 90%.

Take `CC[C@H](C)[C@@H]1NC(=O)[C@H](CCCCN)NC(=O)[C@H](CC(C)C)NC(=O)[C@H](CO)NC(=O)[C@H](CC(N)=O)NC(=O)[C@H](Cc2c[nH]c3ccccc23)NC(=O)CN(C(=O)c2ccccc2-c2c3ccc(=O)cc-3oc3cc(O)ccc23)C(=O)NCCCN(CC(N)=O)C(=O)[C@H](C(C)C)NC(=O)[C@H](CC(=O)O)NC(=O)[C@H](CC(C)C)NC(=O)[C@H](CC(N)=O)NC(=O)[C@H](CC(=O)O)NC1=O` (WNSLKIDNLDV[NGly(3-aminopropyl)]-NH2; linker N-12 via X1): in [1], the Activity came to 6.5 µM. Also, in [2], the inhibition amounted to 44%.

Take H-WNSLKIDNLDV-OH: the figures for the inhibition in data set [8] and in data set [2] were 85% and 83%, respectively. Besides, the Stability result in data set [3] is given as “Unstable”. For the same compound, the outcome in data set [4] was Active. Also, in data set [9], the outcome was inactive. In addition, the Activity in [1] is 5.1 µM; in [5], “Dose-dependent effect”.

`CC[C@H](C)[C@@H]1NC(=O)[C@H](CCCCN)NC(=O)[C@H](CC(C)C)NC(=O)[C@H](CO)NC(=O)[C@H](CC(N)=O)NC(=O)[C@H](Cc2c[nH]c3ccccc23)NC(=O)CN(C(=O)c2ccccc2-c2c3ccc(=O)cc-3oc3cc(O)ccc23)C(=O)NCCN(CC(N)=O)C(=O)[C@H](C(C)C)NC(=O)[C@H](CC(=O)O)NC(=O)[C@H](CC(C)C)NC(=O)[C@H](CC(N)=O)NC(=O)[C@H](CC(=O)O)NC1=O` (WNSLKIDNLDV[N(2-Aminoethyl)Gly]-NH2; linker N-12 via X1) returned an Activity in data set [1] of 5.2 µM. Besides, in data set [2], the inhibition is 51%.

`CC[C@H](C)[C@@H]1NC(=O)[C@H](CCCCN)NC(=O)[C@H](CC(C)C)NC(=O)[C@H](CO)NC(=O)[C@H](CC(N)=O)NC(=O)[C@H](Cc2c[nH]c3ccccc23)NC(=O)CCN(C(=O)c2ccccc2-c2c3ccc(=O)cc-3oc3cc(O)ccc23)C(=O)NCCCCCCN(CC(N)=O)C(=O)[C@H](C(C)C)NC(=O)[C@H](CC(=O)O)NC(=O)[C@H](CC(C)C)NC(=O)[C@H](CC(N)=O)NC(=O)[C@H](CC(=O)O)NC1=O` (WNSLKIDNLDV[N(6-aminohexyl)Gly]-NH2; linker N-12 via X2): in [1], the Activity is 3.8 µM. The inhibition in [2] worked out at 48%.

Turning to `CC[C@H](C)[C@@H]1NC(=O)[C@H](CCCCN)NC(=O)[C@H](CC(C)C)NC(=O)[C@H](CO)NC(=O)[C@H](CC(N)=O)NC(=O)[C@H](Cc2c[nH]c3ccccc23)NC(=O)CCN(C(=O)c2ccccc2-c2c3ccc(=O)cc-3oc3cc(O)ccc23)C(=O)NCCN(CC(N)=O)C(=O)[C@H](C(C)C)NC(=O)[C@H](CC(=O)O)NC(=O)[C@H](CC(C)C)NC(=O)[C@H](CC(N)=O)NC(=O)[C@H](CC(=O)O)NC1=O` (WNSLKIDNLDV[N(2-Aminoethyl)Gly]-NH2; linker N-12 via X2), the Activity in data set [1] is 6.3 µM. Moreover, the inhibition in [2] amounted to 54%.

`CC[C@H](C)[C@@H]1NC(=O)[C@H](CCCCN)NC(=O)[C@H](CC(C)C)NC(=O)[C@H](CO)NC(=O)[C@H](CC(N)=O)NC(=O)[C@H](Cc2c[nH]c3ccccc23)NC(=O)CN(C(=O)c2ccccc2-c2c3ccc(=O)cc-3oc3cc(O)ccc23)C(=O)NCCCCCCN(CC(N)=O)C(=O)[C@H](C(C)C)NC(=O)[C@H](CC(=O)O)NC(=O)[C@H](CC(C)C)NC(=O)[C@H](CC(N)=O)NC(=O)[C@H](CC(=O)O)NC1=O` (WNSLKIDNLDV[N(6-aminohexyl)Gly]-NH2; linker N-12 via X1) had an Activity in [1] of 3.3 µM. Moreover, in [5], the result was inactive. Also, in data set [2], the inhibition turned out to be 48%.

The record behind these values is ChEMBL document CHEMBL1629412, “Cyclic peptide inhibitors of HIV-1 integrase derived from the LEDGF/p75 protein” (Bioorg Med Chem, 2010).
